{
  "source": "ChEMBL document CHEMBL1137783",
  "about": "(J Med Chem, 2009)",
  "data": [
    {"molecular_target": "T1, hERG (KCNH2) (Homo sapiens, UniProt Q12809)", "T1 sequence (Q12809 whole entry)": "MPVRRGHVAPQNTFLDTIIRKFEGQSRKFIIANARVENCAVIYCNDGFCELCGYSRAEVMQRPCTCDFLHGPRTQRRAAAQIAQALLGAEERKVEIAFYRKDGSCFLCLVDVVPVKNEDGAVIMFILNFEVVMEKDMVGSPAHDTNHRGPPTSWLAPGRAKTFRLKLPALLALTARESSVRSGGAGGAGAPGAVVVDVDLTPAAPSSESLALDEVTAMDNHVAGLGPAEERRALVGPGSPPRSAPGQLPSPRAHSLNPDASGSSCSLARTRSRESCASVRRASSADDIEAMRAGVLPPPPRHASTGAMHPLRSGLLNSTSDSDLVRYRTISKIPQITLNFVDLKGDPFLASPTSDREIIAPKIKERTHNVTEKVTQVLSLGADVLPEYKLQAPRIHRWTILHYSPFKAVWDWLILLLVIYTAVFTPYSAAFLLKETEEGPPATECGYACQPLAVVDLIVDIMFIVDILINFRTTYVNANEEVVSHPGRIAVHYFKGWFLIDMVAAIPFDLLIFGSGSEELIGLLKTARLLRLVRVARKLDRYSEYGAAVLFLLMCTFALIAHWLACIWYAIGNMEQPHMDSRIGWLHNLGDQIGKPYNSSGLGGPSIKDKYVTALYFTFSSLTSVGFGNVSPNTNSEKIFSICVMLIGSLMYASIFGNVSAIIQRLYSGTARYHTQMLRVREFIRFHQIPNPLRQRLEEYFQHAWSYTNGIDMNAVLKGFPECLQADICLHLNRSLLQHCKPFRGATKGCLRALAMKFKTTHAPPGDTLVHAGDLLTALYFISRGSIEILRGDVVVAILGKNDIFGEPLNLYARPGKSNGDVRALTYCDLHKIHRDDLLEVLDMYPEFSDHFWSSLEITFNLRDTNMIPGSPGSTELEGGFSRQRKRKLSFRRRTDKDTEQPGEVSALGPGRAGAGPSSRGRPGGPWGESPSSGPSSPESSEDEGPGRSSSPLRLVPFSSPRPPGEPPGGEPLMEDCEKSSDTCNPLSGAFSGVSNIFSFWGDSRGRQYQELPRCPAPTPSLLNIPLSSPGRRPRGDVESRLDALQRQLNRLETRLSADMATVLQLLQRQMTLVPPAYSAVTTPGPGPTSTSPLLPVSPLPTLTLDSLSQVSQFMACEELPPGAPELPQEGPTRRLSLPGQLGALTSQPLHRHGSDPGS", "experiment": "Inhibition of human ERG channel at 3 uM", "conditions": "not given", "units": {"inhibition at 3 µM": "%"}, "values": [
      {"smiles": "CC(C)(CO)NC(=O)[C@H]1CC[C@H](c2nc(-c3cccc(C(F)(F)F)c3)c[nH]2)CC1", "inhibition at 3 µM": 6}
    ]},
    {"molecular_target": "T1, hERG (KCNH2)", "experiment": "(§1) Inhibition of human ERG channel", "conditions": "human", "units": {"Ki": "nM"}, "values": [
      {"smiles": "c1ccc(-c2[nH]c3ccccc3c2C2CCNCC2)cc1", "Ki": 5700},
      {"smiles": "Fc1ccc(-c2[nH]c3cc(F)ccc3c2C2CCCNC2)cc1", "note": "(centres undefined)", "Ki": 1300},
      {"smiles": "CN1CCCC(c2c(-c3ccccc3)[nH]c3ccccc23)C1", "note": "(centres undefined)", "Ki": 9600},
      {"smiles": "Fc1ccc2c([C@@H]3CNCC[C@H]3F)c(-c3cccc4ccccc34)[nH]c2c1", "Ki": 110},
      {"smiles": "Fc1ccc2c([C@@H]3CNCC[C@H]3F)c(-c3ccc4ccccc4c3)[nH]c2c1", "Ki": 500},
      {"smiles": "Fc1ccc2c([C@@H]3CNCC[C@H]3F)c(-c3ccsc3)[nH]c2c1", "Ki": 1500},
      {"smiles": "Fc1ccc(-c2[nH]c3cc(F)ccc3c2[C@@H]2CNCC[C@H]2F)cc1", "Ki": 1600}
    ]},
    {"molecular_target": "Voltage-gated inwardly rectifying potassium channel KCNH2 (Homo sapiens, UniProt Q12809)", "sequence (Q12809 whole entry)": "as above", "experiment": "as §1", "conditions": "not given", "units": {"IC50": "nM", "Ki": "nM"}, "values": [
      {"smiles": "C[N+]1([O-])CCN(C2=Nc3cc(Cl)ccc3Nc3ccccc32)CC1", "IC50": 133000},
      {"smiles": "CN1Cc2cncn2Cc2ccc(C#N)c(c2)Oc2ccc3c(c2)[C@@H](CC3)N2CC[C@@H]1C2=O", "IC50": 2600},
      {"smiles": "Fc1ccc2[nH]c(-c3ccccc3)c([C@@H]3CNCC[C@H]3F)c2c1", "Ki": 7000},
      {"smiles": "c1ccc(-c2[nH]c3ccccc3c2C2CC3CCC(C2)N3)cc1", "note": "(centres undefined)", "Ki": 18},
      {"smiles": "CC(=O)Nc1cccc(N2CCN(CCCCNS(=O)(=O)CC3CCCCC3)CC2)c1", "note": "[NALUZOTAN]", "IC50": 3800},
      {"smiles": "Cc1cc2c(s1)Nc1ccccc1N=C2N1CCN(C)CC1", "note": "[OLANZAPINE]", "IC50": 231}
    ]},
    {"molecular_target": "Voltage-gated inwardly rectifying potassium channel KCNH2 (Homo sapiens, UniProt Q12809)", "experiment": "as §1", "conditions": "human", "values": [
      {"smiles": "C[N+]1([O-])CCN(C2=Nc3cc(Cl)ccc3Nc3ccccc32)CC1", "pIC50": 3.875},
      {"smiles": "Cc1cc2c(s1)Nc1ccccc1N=C2N1CCN(C)CC1", "note": "[OLANZAPINE]", "pIC50": 6.636}
    ]},
    {"molecular_target": "T1, hERG (KCNH2)", "experiment": "Inhibition of human ERG channel at 300 uM", "conditions": "not given", "units": {"inhibition at 300 µM": "%"}, "values": [
      {"smiles": "Cc1nnc(C(C)C)n1C1CC2CCC(C1)N2CC[C@H](NC(=O)C1CCC1)c1ccccc1", "note": "(some centres undefined)", "inhibition at 300 µM": 30},
      {"smiles": "Cc1nnc(C(C)C)n1C1CC2CCC(C1)N2CC[C@H](NC(=O)C1CCCC1)c1ccccc1", "note": "(some centres undefined)", "inhibition at 300 µM": 18},
      {"smiles": "Cc1nnc(C(C)C)n1C1CC2CCC(C1)N2CC[C@H](NC(=O)CCC(F)(F)F)c1ccccc1", "note": "(some centres undefined)", "inhibition at 300 µM": 14}
    ]}
  ]
}
